Patent publication US9326506B2, “Preparation method, agricultural composition and applications of natural brassinolide analogs” (CHENGDU NEWSUN CROPSCIENCE CO., LTD, priority 2012, dated 2016)

Test system: rice seed
Assay: Salt tolerance assay: germination of rice seed under high salt environment
Assay type: in vivo
Text: According to a salt tolerance assay, we measured germination of rice seed under high salt environment to determine effects of the natural brassinolide analogues on the salt tolerance of a plant.
The natural brassinolide analogues, BR1, BR2, BR3, BR4, BR5 and BR6, used herein, were those prepared by the method of Example 1. And BR1, BR2, BR3, BR4, BR5 and BR6 were mixed into a mixture of brassinolide analogues (referred to as “BRs”, in which the weight ratio of BR1:BR2:BR3:BR4:BR5:BR6 is 0.4:0.4:0.4:0.4:0.4:98). Respectively the analogues and the mixture were dissolved into 95% (V/V) ethanol solution, and then diluted with pure water to 1 mg/L, 0.1 mg/L, 0.01 mg/L, 0.001 mg/L and 0.0001 mg/L. In addition, pure water was used as a control. Furthermore, NaCl was added to the above solutions containing different concentrations of the natural brassinolide analogues or pure water respectively, and the concentrations of the salt are 300, 400, 500 and 600 mg/L respectively.
After rice seeds were disinfected by using 5% sodium hypochlorite solution treatment, they were rinsed with distilled water until their pH>7, placed into a petri dish in a dark incubator, and cultured at 30° C.±2° C. by using the above solutions containing different concentrations of the natural brassinolide analogues or pure water for observing the germination and calculating germination rates. The results are shown in tables 4-0˜4-4, which indicate that relative to the control, each of the natural brassinolide analogues and the mixture were capable of increasing germination rates of rice under high salt environment so as to enhance the salt tolerance of a plant; and substantially the enhancement of the germination rates was positively correlated to the concentrations of the natural brassinolide analogues and the mixture.

[1] = sample 0.0001 mg/l, salt 300 mg/l
[2] = sample 0.0001 mg/l, salt 400 mg/l
[3] = sample 0.0001 mg/l, salt 500 mg/l
[4] = sample 0.0001 mg/l, salt 600 mg/l
[5] = sample 0.001 mg/l, salt 300 mg/l
[6] = sample 0.001 mg/l, salt 400 mg/l
[7] = sample 0.001 mg/l, salt 500 mg/l
[8] = sample 0.001 mg/l, salt 600 mg/l
[9] = sample 0.01 mg/l, salt 300 mg/l
[10] = sample 0.01 mg/l, salt 400 mg/l
[11] = sample 0.01 mg/l, salt 500 mg/l
[12] = sample 0.01 mg/l, salt 600 mg/l
[13] = rice seed, sample 0.0001 mg/l, salt (NaCl) 300 mg/l
[14] = rice seed, sample 0.0001 mg/l, salt (NaCl) 400 mg/l
[15] = rice seed, sample 0.0001 mg/l, salt (NaCl) 500 mg/l
[16] = rice seed, sample 0.0001 mg/l, salt (NaCl) 600 mg/l
[17] = rice seed, sample 0.001 mg/l, salt (NaCl) 300 mg/l
[18] = rice seed, sample 0.001 mg/l, salt (NaCl) 400 mg/l
[19] = rice seed, sample 0.001 mg/l, salt (NaCl) 500 mg/l
[20] = rice seed, sample 0.001 mg/l, salt (NaCl) 600 mg/l
[21] = rice seed, sample 0.01 mg/l, salt (NaCl) 300 mg/l
[22] = rice seed, sample 0.01 mg/l, salt (NaCl) 400 mg/l
[23] = rice seed, sample 0.01 mg/l, salt (NaCl) 500 mg/l
[24] = rice seed, sample 0.01 mg/l, salt (NaCl) 600 mg/l
[25] = rice seed, sample 0.1 mg/l, salt (NaCl) 300 mg/l
[26] = rice seed, sample 0.1 mg/l, salt (NaCl) 400 mg/l
[27] = rice seed, sample 0.1 mg/l, salt (NaCl) 500 mg/l
[28] = rice seed, sample 0.1 mg/l, salt (NaCl) 600 mg/l
[29] = rice seed, sample 1 mg/l, salt (NaCl) 300 mg/l
[30] = rice seed, sample 1 mg/l, salt (NaCl) 400 mg/l
[31] = rice seed, sample 1 mg/l, salt (NaCl) 500 mg/l
[32] = rice seed, sample 1 mg/l, salt (NaCl) 600 mg/l

| SMILES | Germination rate [1] | Germination rate [2] | Germination rate [3] | Germination rate [4] | Germination rate [5] | Germination rate [6] | Germination rate [7] | Germination rate [8] | Germination rate [9] | Germination rate [10] | Germination rate [11] | Germination rate [12] | Germination rate (sample 0.1 mg/l, salt 300 mg/l) | Germination rate (sample 0.1 mg/l, salt 400 mg/l) | Germination rate (sample 0.1 mg/l, salt 500 mg/l) | Germination rate (sample 0.1 mg/l, salt 600 mg/l) | Germination rate (sample 1 mg/l, salt 300 mg/l) | Germination rate (sample 1 mg/l, salt 400 mg/l) | Germination rate (sample 1 mg/l, salt 500 mg/l) | Germination rate (sample 1 mg/l, salt 600 mg/l) | further results |
| --- | --- | --- | --- | --- | --- | --- | --- | --- | --- | --- | --- | --- | --- | --- | --- | --- | --- | --- | --- | --- | --- |
| CC(C)[C@H](C)[C@@H](O)[C@H](O)[C@@H](C)[C@H]1CCC2C3COC(=O)C4C[C@H](O)[C@H](O)C[C@]4(C)C3CC[C@@]21C (stereo partly drawn) [BR1] | 51% | 48% | 42% | 36% | 53% | 49% | 45% | 37% | 55% | 52% | 47% | 39% | 58% | 52% | 49% | 40% | 62% | 55% | 50% | 42% | – |
| CC(C)C[C@@H](O)[C@H](O)[C@@H](C)[C@H]1CCC2C3CC(=O)C4C[C@H](O)[C@H](O)C[C@]4(C)C3CC[C@@]21C (stereo partly drawn) [BR5] | – | – | – | – | – | – | – | – | – | – | – | – | – | – | – | – | – | – | – | – | Germination rate [13]: 50%; Germination rate [14]: 48%; Germination rate [15]: 42%; Germination rate [16]: 36%; Germination rate [17]: 52%; Germination rate [18]: 49%; Germination rate [19]: 45%; Germination rate [20]: 38%; Germination rate [21]: 56%; Germination rate [22]: 51%; Germination rate [23]: 47%; Germination rate [24]: 39%; Germination rate [25]: 58%; Germination rate [26]: 52%; Germination rate [27]: 43%; Germination rate [28]: 40%; Germination rate [29]: 62%; Germination rate [30]: 55%; Germination rate [31]: 50%; Germination rate [32]: 42% |
| CC(C)(O)CC[C@@H](O)[C@](C)(O)[C@H]1CC[C@@]2(O)[C@@H]3CC(=O)[C@@H]4C[C@@H](O)[C@@H](O)C[C@]4(C)[C@H]3CC[C@]12C [BR6] | – | – | – | – | – | – | – | – | – | – | – | – | – | – | – | – | – | – | – | – | Germination rate [13]: 52%; Germination rate [14]: 48%; Germination rate [15]: 42%; Germination rate [16]: 36%; Germination rate [17]: 53%; Germination rate [18]: 50%; Germination rate [19]: 44%; Germination rate [20]: 37%; Germination rate [21]: 55%; Germination rate [22]: 51%; Germination rate [23]: 46%; Germination rate [24]: 39%; Germination rate [25]: 58%; Germination rate [26]: 53%; Germination rate [27]: 47%; Germination rate [28]: 42%; Germination rate [29]: 68%; Germination rate [30]: 55%; Germination rate [31]: 52%; Germination rate [32]: 44% |
| C=C(C(C)C)[C@@H](O)[C@H](O)[C@@H](C)[C@H]1CCC2C3COC(=O)C4C[C@H](O)[C@H](O)C[C@]4(C)C3CC[C@@]21C (stereo partly drawn) [BR3] | 50% | 45% | 39% | 32% | 50% | 43% | 40% | 33% | 51% | 50% | 47% | 39% | 50% | 50% | 41% | 38% | 52% | 46% | 40% | 38% | – |
| CC[C@@H](C(C)C)[C@@H](O)[C@H](O)[C@@H](C)[C@H]1CCC2C3COC(=O)C4C[C@H](O)[C@H](O)C[C@]4(C)C3CC[C@@]21C (stereo partly drawn) [BR2] | 45% | 41% | 39% | 36% | 50% | 42% | 40% | 36% | 50% | 51% | 47% | 39% | 50% | 50% | 46% | 38% | 58% | 51% | 46% | 38% | – |
| CC(C)[C@H](C)[C@@H](O)[C@H](O)[C@@H](C)[C@H]1CCC2C3CC(=O)C4C[C@H](O)CC[C@]4(C)C3CC[C@@]21C (stereo partly drawn) [BR4] | 50% | 47% | 42% | 36% | 51% | 49% | 43% | 37% | 55% | 52% | 47% | 39% | 58% | 50% | 49% | 40% | 60% | 55% | 50% | 41% | – |
